Results: the supplement of paper PMC11208160
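Also: IS621 recombinase and bridge RNA in Escherichia coli cells.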

Test: recombinant barcode read abundance after kanamycin selection (control-corrected) (log10(CPM+1)); higher = more efficient recombination; sequences stand for … in AGTGCAGAGAAAATCGGCCAGTTTTCTCTGCCTGCAGTCCGCATGCCGT…AGATTTATGCAGCGGACTGCCTTTCTCCCAAAGTGATAAACCGGACAGTATCATGGACCGGTTTTCCCGGTAATCCGTATTTGCAAGGTTGGTTTCACT; site = the 11-nt target
Method in brief: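 Pooled E. coli screen pairing targets with IS621 bridge RNA target-binding loops. Each oligo (promoter, target, barcode, J23119-driven first 104 bridge RNA bases) was Gibson-cloned into a vector with the remaining 73 bp and T7-inducible recombinase, then co-electroporated with a donor plasmid. Two replicates each were plated on chloramphenicol/ampicillin LB agar (control) or chloramphenicol/ampicillin/kanamycin with 0.1 mM IPTG. Recombination efficiency is recombinant-junction barcode counts as CPM, averaged, control-corrected, reported as log10(CPM+1).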
For “TGCCGAACTTGGGTTCTAACCTGTTGCCT (site GGCCGAACTAG)”, the “recombinant barcode read abundance (log10)” value was 0.0503.
With “TGCCGAACTTGGGTTCTAACCTGTTGCCT (site TGCCGAACTAG)” the “recombinant barcode read abundance (log10)” value was 0.161.
In the case of “TGCCGCTCTTGGGTTCTAACCTGTTGCCT (site TGACGCTCTAG)”, the “recombinant barcode read abundance (log10)” value is reported as 1.35.
With “TGCCGCTCTTGGGTTCTAACCTGTTGCCT (site TGCCGCTCTAG)” the “recombinant barcode read abundance (log10)” value was 1.24.
With “TGCCGCTCTTGGGTTCTAACCTGTTGCCT (site TGGCGCTCTAG)” the “recombinant barcode read abundance (log10)” value was 0.277.
With “TGCCGCTCTTGGGTTCTAACCTGTTGCCT (site TGTCGCTCTAG)” the “recombinant barcode read abundance (log10)” value was 0.0629.
In the case of “TGCGACCCTTGGGTTCTAACCTGTTGCTT (site TGCGACCCTAA)”, the “recombinant barcode read abundance (log10)” value is reported as 1.74.
In the case of “TGCGACCCTTGGGTTCTAACCTGTTGCTT (site TGGGACCCTAT)”, the “recombinant barcode read abundance (log10)” value is reported as 0.312.
With “TGCGACTCTTGGGTTCTAACCTGTTGCCT (site TGAGACTCTAG)” the “recombinant barcode read abundance (log10)” value was 1.47.
In the case of “TGCGACTCTTGGGTTCTAACCTGTTGCCT (site TGCGACTCTAG)”, the “recombinant barcode read abundance (log10)” value is reported as 1.5.
For “TGCGACTCTTGGGTTCTAACCTGTTGCCT (site TGGGACTCTAG)”, the “recombinant barcode read abundance (log10)” value was 0.0561.
With “TGCGACTCTTGGGTTCTAACCTGTTGCCT (site TGTGACTCTAG)” the “recombinant barcode read abundance (log10)” value was 0.0576.
In the case of “TGCGTAACTTGGGTTCTAACCTGTTGCCA (site GAACCTCCTAT)”, the “recombinant barcode read abundance (log10)” value is reported as 0.0676.
In the case of “TGCGTAACTTGGGTTCTAACCTGTTGCCA (site TGCGTAACTTG)”, the “recombinant barcode read abundance (log10)” value is reported as 0.104.
In the case of “TGCTCTACTTGGGTTCTAACCTGTTGCTG (site TGCTCTACTCA)”, the “recombinant barcode read abundance (log10)” value is reported as 0.00915.
For “TGCTCTACTTGGGTTCTAACCTGTTGCTG (site TGTTCTACTCG)”, the “recombinant barcode read abundance (log10)” value was 0.114.
For “TGGACTTCTTGGGTTCTAACCTGTTGCTT (site TGGAATTCTAA)”, the “recombinant barcode read abundance (log10)” value was 0.0677.
For “TGGACTTCTTGGGTTCTAACCTGTTGCTT (site TGGACTTCTAA)”, the “recombinant barcode read abundance (log10)” value was 0.0981.
In the case of “TGGAGCCCTTGGGTTCTAACCTGTTGCTT (site TGGAGCCCTAA)”, the “recombinant barcode read abundance (log10)” value is reported as 0.463.
For “TGGAGCCCTTGGGTTCTAACCTGTTGCTT (site TGGAGTCCTAA)”, the “recombinant barcode read abundance (log10)” value was 0.136.
With “TGGAGTACTTGGGTTCTAACCTGTTGCTT (site TGGAGTACTAA)” the “recombinant barcode read abundance (log10)” value was 1.02.
For “TGGAGTACTTGGGTTCTAACCTGTTGCTT (site TGTAGTACTAG)”, the “recombinant barcode read abundance (log10)” value was 0.0535.
For “TGGATTCCTTGGGTTCTAACCTGTTGCCT (site TGGATTCCTAG)”, the “recombinant barcode read abundance (log10)” value was 0.223.
In the case of “TGGATTCCTTGGGTTCTAACCTGTTGCCT (site TGGATTGCTAG)”, the “recombinant barcode read abundance (log10)” value is reported as 0.392.
In the case of “TGGCAATCTTGGGTTCTAACCTGTTGCCT (site ACCTCGGCTCA)”, the “recombinant barcode read abundance (log10)” value is reported as 0.556.
For “TGGCAATCTTGGGTTCTAACCTGTTGCCT (site TGGCAATCTAG)”, the “recombinant barcode read abundance (log10)” value was 0.257.
With “TGGCCCTCTTGGGTTCTAACCTGTTGCTA (site TGGCCCTCTAA)” the “recombinant barcode read abundance (log10)” value was 1.1.
In the case of “TGGCCCTCTTGGGTTCTAACCTGTTGCTA (site TGGCCCTCTCA)”, the “recombinant barcode read abundance (log10)” value is reported as 0.0705.
With “TGGCCCTCTTGGGTTCTAACCTGTTGCTA (site TGGCCCTCTGA)” the “recombinant barcode read abundance (log10)” value was 0.0109.
In the case of “TGGCCCTCTTGGGTTCTAACCTGTTGCTA (site TGGCCCTCTTA)”, the “recombinant barcode read abundance (log10)” value is reported as 2.03.
With “TGGCCCTCTTGGGTTCTAACCTGTTGCTG (site TGGCCCTCTAA)” the “recombinant barcode read abundance (log10)” value was 0.784.
In the case of “TGGCCCTCTTGGGTTCTAACCTGTTGCTG (site TGGCCCTCTCA)”, the “recombinant barcode read abundance (log10)” value is reported as 2.31.
For “TGGCCCTCTTGGGTTCTAACCTGTTGCTG (site TGGCCCTCTGA)”, the “recombinant barcode read abundance (log10)” value was 0.0444.
With “TGGCCCTCTTGGGTTCTAACCTGTTGCTG (site TGGCCCTCTTA)” the “recombinant barcode read abundance (log10)” value was 0.111.
For “TGGCCTTCTTGGGTTCTAACCTGTTGCCT (site TAGCCTTCTAG)”, the “recombinant barcode read abundance (log10)” value was 0.0963.
For “TGGCCTTCTTGGGTTCTAACCTGTTGCCT (site TCGCCTTCTAG)”, the “recombinant barcode read abundance (log10)” value was 0.0688.
In the case of “TGGCCTTCTTGGGTTCTAACCTGTTGCCT (site TGGCCTTCTAG)”, the “recombinant barcode read abundance (log10)” value is reported as 0.781.
With “TGGCCTTCTTGGGTTCTAACCTGTTGCCT (site TTGCCTTCTAG)” the “recombinant barcode read abundance (log10)” value was 0.0528.
With “TGGCGAGCTTGGGTTCTAACCTGTTGCCT (site TGGCCTGCTAG)” the “recombinant barcode read abundance (log10)” value was 0.152.
With “TGGCGAGCTTGGGTTCTAACCTGTTGCCT (site TGGCGAGCTAG)” the “recombinant barcode read abundance (log10)” value was 1.02.
In the case of “TGGCGCTCTTGGGTTCTAACCTGTTGCCT (site TGACGCTCTAG)”, the “recombinant barcode read abundance (log10)” value is reported as 0.855.
For “TGGCGCTCTTGGGTTCTAACCTGTTGCCT (site TGCCGCTCTAG)”, the “recombinant barcode read abundance (log10)” value was 0.
For “TGGCGCTCTTGGGTTCTAACCTGTTGCCT (site TGGCGCTCTAG)”, the “recombinant barcode read abundance (log10)” value was 0.457.
With “TGGCGCTCTTGGGTTCTAACCTGTTGCCT (site TGTCGCTCTAG)” the “recombinant barcode read abundance (log10)” value was 0.0369.
With “TGGCTATCTTGGGTTCTAACCTGTTGCCT (site CGGCTATCTAG)” the “recombinant barcode read abundance (log10)” value was 0.00906.
In the case of “TGGCTATCTTGGGTTCTAACCTGTTGCCT (site TGGCTATCTAG)”, the “recombinant barcode read abundance (log10)” value is reported as 0.187.
With “TGGCTCCCTTGGGTTCTAACCTGTTGCCG (site TGGCTCCCTCC)” the “recombinant barcode read abundance (log10)” value was 0.077.
In the case of “TGGCTCCCTTGGGTTCTAACCTGTTGCCG (site TGGCTCCCTCG)”, the “recombinant barcode read abundance (log10)” value is reported as 1.35.
With “TGGCTCCCTTGGGTTCTAACCTGTTGCGG (site TGGCTCCCTCC)” the “recombinant barcode read abundance (log10)” value was 0.188.
For “TGGCTCCCTTGGGTTCTAACCTGTTGCGG (site TGGCTCCCTCG)”, the “recombinant barcode read abundance (log10)” value was 0.12.
With “TGGGACTCTTGGGTTCTAACCTGTTGCCA (site TCGGACACTTG)” the “recombinant barcode read abundance (log10)” value was 0.328.
In the case of “TGGGACTCTTGGGTTCTAACCTGTTGCCA (site TGGGACTCTTG)”, the “recombinant barcode read abundance (log10)” value is reported as 2.29.
With “TGGGATCCTTGGGTTCTAACCTGTTGCAT (site AGGGGTCCTAT)” the “recombinant barcode read abundance (log10)” value was 0.0813.
With “TGGGATCCTTGGGTTCTAACCTGTTGCAT (site TGGGATCCTAT)” the “recombinant barcode read abundance (log10)” value was 1.73.
In the case of “TGGGGCCCTTGGGTTCTAACCTGTTGCCT (site TGGGGCCCTAG)”, the “recombinant barcode read abundance (log10)” value is reported as 1.66.
For “TGGGGCCCTTGGGTTCTAACCTGTTGCCT (site TGGTGCCCTAC)”, the “recombinant barcode read abundance (log10)” value was 0.156.
For “TGGGGTCCTTGGGTTCTAACCTGTTGCCT (site TGGAGTCCTAG)”, the “recombinant barcode read abundance (log10)” value was 1.52.
For “TGGGGTCCTTGGGTTCTAACCTGTTGCCT (site TGGCGTCCTAG)”, the “recombinant barcode read abundance (log10)” value was 0.0786.
With “TGGGGTCCTTGGGTTCTAACCTGTTGCCT (site TGGGGTCCTAG)” the “recombinant barcode read abundance (log10)” value was 2.33.
With “TGGGGTCCTTGGGTTCTAACCTGTTGCCT (site TGGTGTCCTAG)” the “recombinant barcode read abundance (log10)” value was 0.217.
For “TGGGTCCCTTGGGTTCTAACCTGTTGCCT (site TGAGTCCCTAG)”, the “recombinant barcode read abundance (log10)” value was 2.14.
With “TGGGTCCCTTGGGTTCTAACCTGTTGCCT (site TGCGTCCCTAG)” the “recombinant barcode read abundance (log10)” value was 0.102.
With “TGGGTCCCTTGGGTTCTAACCTGTTGCCT (site TGGGTCCCTAG)” the “recombinant barcode read abundance (log10)” value was 3.
With “TGGGTCCCTTGGGTTCTAACCTGTTGCCT (site TGTGTCCCTAG)” the “recombinant barcode read abundance (log10)” value was 0.0764.
In the case of “TGGTACCCTTGGGTTCTAACCTGTTGCCT (site TGGTACCCTAG)”, the “recombinant barcode read abundance (log10)” value is reported as 1.64.
In the case of “TGGTACCCTTGGGTTCTAACCTGTTGCCT (site TGTTACCCTAG)”, the “recombinant barcode read abundance (log10)” value is reported as 0.126.
In the case of “TGGTATTCTTGGGTTCTAACCTGTTGCCT (site TGGTATACTAG)”, the “recombinant barcode read abundance (log10)” value is reported as 0.0539.
With “TGGTATTCTTGGGTTCTAACCTGTTGCCT (site TGGTATCCTAG)” the “recombinant barcode read abundance (log10)” value was 0.113.
With “TGGTATTCTTGGGTTCTAACCTGTTGCCT (site TGGTATGCTAG)” the “recombinant barcode read abundance (log10)” value was 0.11.
In the case of “TGGTATTCTTGGGTTCTAACCTGTTGCCT (site TGGTATTCTAG)”, the “recombinant barcode read abundance (log10)” value is reported as 0.373.
With “TGGTCCGCTTGGGTTCTAACCTGTTGCCT (site TGGTACGCTAG)” the “recombinant barcode read abundance (log10)” value was 0.257.
In the case of “TGGTCCGCTTGGGTTCTAACCTGTTGCCT (site TGGTCCGCTAG)”, the “recombinant barcode read abundance (log10)” value is reported as 1.58.
In the case of “TGGTCCGCTTGGGTTCTAACCTGTTGCCT (site TGGTGCGCTAG)”, the “recombinant barcode read abundance (log10)” value is reported as 0.0483.
With “TGGTCCGCTTGGGTTCTAACCTGTTGCCT (site TGGTTCGCTAG)” the “recombinant barcode read abundance (log10)” value was 0.243.
For “TGGTGCCCTTGGGTTCTAACCTGTTGCGT (site TGGGGCCCTAG)”, the “recombinant barcode read abundance (log10)” value was 0.122.
With “TGGTGCCCTTGGGTTCTAACCTGTTGCGT (site TGGTGCCCTAC)” the “recombinant barcode read abundance (log10)” value was 1.83.
For “TGGTTACCTTGGGTTCTAACCTGTTGCCT (site TGGTTACCTAG)”, the “recombinant barcode read abundance (log10)” value was 1.17.
For “TGGTTACCTTGGGTTCTAACCTGTTGCCT (site TGTTTAACTAG)”, the “recombinant barcode read abundance (log10)” value was 0.0377.
For “TGTACGTCTTGGGTTCTAACCTGTTGCTT (site TGTACGACTAG)”, the “recombinant barcode read abundance (log10)” value was 0.0847.
In the case of “TGTACGTCTTGGGTTCTAACCTGTTGCTT (site TGTACGTCTAA)”, the “recombinant barcode read abundance (log10)” value is reported as 0.326.
In the case of “TGTAGAGCTTGGGTTCTAACCTGTTGCAG (site TGTAGAGCTCT)”, the “recombinant barcode read abundance (log10)” value is reported as 0.872.
In the case of “TGTAGAGCTTGGGTTCTAACCTGTTGCAG (site TGTTGAGCTCT)”, the “recombinant barcode read abundance (log10)” value is reported as 0.0298.
For “TGTAGCACTTGGGTTCTAACCTGTTGCAC (site TGTAGCACTGT)”, the “recombinant barcode read abundance (log10)” value was 0.0233.
With “TGTAGCACTTGGGTTCTAACCTGTTGCAC (site TGTCGCACTCT)” the “recombinant barcode read abundance (log10)” value was 0.159.
For “TGTAGTCCTTGGGTTCTAACCTGTTGCAT (site TGTAGTCCTAA)”, the “recombinant barcode read abundance (log10)” value was 0.232.
For “TGTAGTCCTTGGGTTCTAACCTGTTGCAT (site TGTAGTCCTAC)”, the “recombinant barcode read abundance (log10)” value was 0.0299.
